Laboratory results as given in patent US7968577B2 (Bristol-Myers Squibb Company, priority 2006, dated 2011).

The compounds below were run against T1, human glucocorticoid receptor (Homo sapiens, UniProt P04150) (assay: Glucocorticoid Receptor Binding Assay (I), fluorescence polarization competitor kit (Fluormone GS Red)). Conditions: GR Binding Assay (I).
T1 construct: purified human recombinant full-length glucocorticoid receptor; purchased Invitrogen Part #2893
T1 sequence (P04150 1-777): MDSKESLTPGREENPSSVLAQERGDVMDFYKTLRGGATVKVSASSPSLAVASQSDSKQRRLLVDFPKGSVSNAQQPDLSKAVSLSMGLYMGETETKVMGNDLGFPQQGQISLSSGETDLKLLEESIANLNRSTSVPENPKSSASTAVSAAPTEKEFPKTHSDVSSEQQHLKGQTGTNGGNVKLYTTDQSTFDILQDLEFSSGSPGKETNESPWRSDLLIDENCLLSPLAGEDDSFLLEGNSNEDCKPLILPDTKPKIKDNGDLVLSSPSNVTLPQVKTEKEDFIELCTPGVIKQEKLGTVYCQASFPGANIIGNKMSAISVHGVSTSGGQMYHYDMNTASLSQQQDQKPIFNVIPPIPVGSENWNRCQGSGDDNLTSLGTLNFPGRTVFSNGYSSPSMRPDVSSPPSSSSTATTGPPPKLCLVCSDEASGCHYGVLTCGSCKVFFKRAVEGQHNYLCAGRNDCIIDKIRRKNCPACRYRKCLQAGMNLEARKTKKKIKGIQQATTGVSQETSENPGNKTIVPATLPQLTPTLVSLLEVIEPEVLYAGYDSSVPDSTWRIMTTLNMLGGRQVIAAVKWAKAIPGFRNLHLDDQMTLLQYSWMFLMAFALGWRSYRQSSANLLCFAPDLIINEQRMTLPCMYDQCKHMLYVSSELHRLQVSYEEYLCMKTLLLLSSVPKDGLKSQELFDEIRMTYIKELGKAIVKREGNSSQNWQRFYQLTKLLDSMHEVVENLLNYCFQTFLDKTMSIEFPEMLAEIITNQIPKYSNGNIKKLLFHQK
Experimental: Glucocorticoid Receptor Binding Assay (I)^a
In order to assess the affinity of test compounds for the human glucocorticoid receptor, a commercially available kit was used (Glucocorticoid Receptor Competitor Assay Kit, Invitrogen Part #2893). Briefly, purified human recombinant full-length glucocorticoid receptor (2 nM) was mixed with fluorescently labeled glucocorticoid (1 nM Fluormone GS Red) in the presence or absence of test compound. After two hour incubation at room temperature in the dark, the fluorescence polarization (FP) of the samples was measured. […] Test compounds were analyzed in the concentration range from 8.5 E-05 μM to 5 μM.

CC(C)(C(=O)Nc1nccs1)C(c1ccc(N2CCOCC2)cc1)c1cccc(F)c1 (single isomer, unassigned) [Example 254, 3-(3-fluorophenyl)-2,2-dimethyl-3-(4-(4-morpholinyl)phenyl)-N-1,3-thiazol-2-ylpropanamide] and CC(C)(C(=O)Nc1nncs1)C(c1ccc(N2CCOCC2)cc1)c1cccc(F)c1 (single isomer, unassigned) [Example 256, 3-(3-fluorophenyl)-2,2-dimethyl-3-(4-(4-morpholinyl)phenyl)-N-1,3,4-thiadiazol-2-ylpropanamide] are within 1.5-fold of each other in Ki: 104 nM for the first, 125 nM for the second.

Compared with O=C(Nc1nccs1)C1(C(c2ccccc2)c2ccccc2)CCC1 [Example 153, 1-(diphenylmethyl)-N-1,3-thiazol-2-ylcyclobutanecarboxamide], O=C(Nc1nccs1)C1(C(c2ccccc2)c2ccccc2)CCCCC1 [Example 156, 1-(diphenylmethyl)-N-1,3-thiazol-2-ylcyclohexanecarboxamide] is 1.6-fold higher in Ki: 23.2 nM for the first, 36.9 nM for the second. The first binds more tightly here.

COc1ccc(C(c2ccccc2)C(C)(C)C(=O)Nc2nncs2)cc1C (centres unmarked) [Example 293, 2,2-dimethyl-3-(3-methyl-4-(methyloxy)phenyl)-3-phenyl-N-1,3,4-thiadiazol-2-ylpropanamide] and COc1ccc(-c2ccc(C(c3ccccc3)C(C)(C)C(=O)Nc3nncs3)cc2)cc1F (centres unmarked) [Example 420, 3-(3′-fluoro-4′-methoxy-4-biphenylyl)-2,2-dimethyl-3-phenyl-N-1,3,4-thiadiazol-2-ylpropanamide] are within 1.5-fold of each other in Ki: 9.85 nM for the first, 13.3 nM for the second.

Compared with CC(=O)c1cccc(-c2ccc(C(c3ccccc3)C(C)(C)C(=O)Nc3nncs3)cc2)c1 (centres unmarked) [Example 413, 3-(3′-acetyl-4-biphenylyl)-2,2-dimethyl-3-phenyl-N-1,3,4-thiadiazol-2-ylpropanamide], CC(C)(C(=O)Nc1nncs1)C(c1ccccc1)c1ccc(-c2cccc(Cl)c2)cc1 (centres unmarked) [Example 409, 3-(3′-chloro-4-biphenylyl)-2,2-dimethyl-3-phenyl-N-1,3,4-thiadiazol-2-ylpropanamide] is 4.3-fold lower in Ki: 110 nM for the first, 25.4 nM for the second. The second binds more tightly here.

First: CC(C)(C(=O)Nc1nncs1)C(c1ccccc1)c1ccc(Cc2ccccc2)cc1 (centres unmarked) [Example 320, 2,2-dimethyl-3-phenyl-3-(4-(phenylmethyl)phenyl)-N-1,3,4-thiadiazol-2-ylpropanamide]
Second: CC(C)(C(=O)Nc1nncs1)C(c1ccccc1)c1ccc(Oc2ccccc2)cc1 (centres unmarked) [Example 322, 2,2-dimethyl-3-phenyl-3-(4-(phenyloxy)phenyl)-N-1,3,4-thiadiazol-2-ylpropanamide]
The Ki of the first is 36-fold higher: 187 nM for the first, 5.17 nM for the second.

First: CC(=O)c1cccc(-c2ccc(C(CC(C)C)C(C)(C)C(=O)Nc3nncs3)cc2)c1 (centres unmarked) [Example 439, 3-(3′-acetyl-4-biphenylyl)-2,2,5-trimethyl-N-1,3,4-thiadiazol-2-ylhexanamide]
Second: CC(=O)c1ccc(-c2ccc(C(CC(C)C)C(C)(C)C(=O)Nc3nncs3)cc2)cc1 (centres unmarked) [Example 438, 3-(4′-acetyl-4-biphenylyl)-2,2,5-trimethyl-N-1,3,4-thiadiazol-2-ylhexanamide]
The Ki of the first is 1.7-fold higher: 20.3 nM for the first, 12 nM for the second.

Going from COc1ccc(-c2ccc(C(CC(C)C)C(C)(C)C(=O)Nc3nncs3)cc2)cc1 (centres unmarked) [Example 394, 2,2,5-trimethyl-3-(4′-(methyloxy)-4-biphenylyl)-N-1,3,4-thiadiazol-2-ylhexanamide] to CC(C)CC(c1ccc(-c2ccc(O)cc2)cc1)C(C)(C)C(=O)Nc1nncs1 (centres unmarked) [Example 436, 3-(4′-hydroxy-4-biphenylyl)-2,2,5-trimethyl-N-1,3,4-thiadiazol-2-ylhexanamide], the Ki rises from 9.28 nM to 105 nM (11-fold). The first binds more tightly here.

Going from COc1cccc(-c2ccc(C(c3ccccc3)C(C)(C)C(=O)Nc3nncs3)cc2)c1 (centres unmarked) [Example 410, 3-(3′-methoxy-4-biphenylyl)-2,2-dimethyl-3-phenyl-N-1,3,4-thiadiazol-2-ylpropanamide] to COc1ccc(-c2ccc(C(c3ccccc3)C(C)(C)C(=O)Nc3nncs3)cc2)cc1 (centres unmarked) [Example 377, 2,2-dimethyl-3-(4′-(methyloxy)-4-biphenylyl)-3-phenyl-N-1,3,4-thiadiazol-2-ylpropanamide], the Ki falls from 4.45 nM to 1.81 nM (2.5-fold). The second binds more tightly here.

Compared with CC(C)CC(c1ccc(-c2ccc(-c3ccccc3)cc2)cc1)C(C)(C)C(=O)Nc1nncs1 (centres unmarked) [Example 433, 2,2,5-trimethyl-3-(1,1′:4′,1″-terphenyl-4-yl)-N-1,3,4-thiadiazol-2-ylhexanamide], CC(=O)Nc1ccc(-c2ccc(C(CC(C)C)C(C)(C)C(=O)Nc3nncs3)cc2)cc1 (centres unmarked) [Example 440, 3-(4′-acetamido-4-biphenylyl)-2,2,5-trimethyl-N-1,3,4-thiadiazol-2-ylhexanamide] is 1.7-fold higher in Ki: 12.4 nM for the first, 21.4 nM for the second.

First: Cc1nnc(NC(=O)C(C)(C)C(CC(C)C)c2ccc(N3CCOCC3)cc2)s1 (centres unmarked) [Example 388, 2,2,5-trimethyl-N-(5-methyl-1,3,4-thiadiazol-2-yl)-3-(4-(4-morpholinyl)phenyl)hexanamide]
Second: CC(C)CC(c1ccc(N2CCOCC2)cc1)C(C)(C)C(=O)Nc1nccs1 (centres unmarked) [Example 389, 2,2,5-trimethyl-3-(4-(4-morpholinyl)phenyl)-N-1,3-thiazol-2-ylhexanamide]
The Ki of the first is 3-fold higher: 14 nM for the first, 4.65 nM for the second. The second binds more tightly here.

Compared with CC(C)(C)c1csc(NC(=O)C2(C(c3ccccc3)c3ccccc3)CCCC2)n1 [Example 151, N-(4-(1,1-dimethylethyl)-1,3-thiazol-2-yl)-1-(diphenylmethyl) cyclopentanecarboxamide], CCC(C)(C(=O)Nc1nccs1)C(c1ccccc1)c1ccccc1 (centres unmarked) [Example 176, 2-(diphenylmethyl)-2-methyl-N-1,3-thiazol-2-ylbutanamide] is 21-fold lower in Ki: 1150 nM for the first, 54 nM for the second. The second binds more tightly here.

Going from COc1ccccc1-c1ccc(C(c2ccccc2)C(C)(C)C(=O)Nc2nncs2)cc1 (centres unmarked) [Example 411, 3-(2′-methoxy-4-biphenylyl)-2,2-dimethyl-3-phenyl-N-1,3,4-thiadiazol-2-ylpropanamide] to CC(C)Oc1ccc(-c2ccc(C(c3ccccc3)C(C)(C)C(=O)Nc3nncs3)cc2)cc1F (centres unmarked) [Example 385, 3-(3′-fluoro-4′-((1-methylethyl)oxy)-4-biphenylyl)-2,2-dimethyl-3-phenyl-N-1,3,4-thiadiazol-2-ylpropanamide], the Ki falls from 154 nM to 13.8 nM (11-fold).

CCCc1ccc(-c2ccc(C(CC(C)C)C(C)(C)C(=O)Nc3nncs3)cc2)cc1 (centres unmarked) [Example 399, 2,2,5-trimethyl-3-(4′-propyl-4-biphenylyl)-N-1,3,4-thiadiazol-2-ylhexanamide] and CC(C)CC(c1ccc(-c2ccc(OC(F)(F)F)cc2)cc1)C(C)(C)C(=O)Nc1nncs1 (centres unmarked) [Example 437, 2,2,5-trimethyl-N-1,3,4-thiadiazol-2-yl-3-(4′-(trifluoromethoxy)-4-biphenylyl)hexanamide] are within 1.5-fold of each other in Ki: 7.1 nM for the first, 5.33 nM for the second.

Going from CC(C)CC(c1ccc(Br)cc1)C(C)(C)C(=O)Nc1nccs1 (centres unmarked) [Example 386, 3-(4-bromophenyl)-2,2,5-trimethyl-N-1,3-thiazol-2-ylhexanamide] to COc1ccc(-c2ccc(C(CC(C)C)C(C)(C)C(=O)Nc3nccs3)cc2)cc1 (centres unmarked) [Example 391, 2,2,5-trimethyl-3-(4′-(methyloxy)-4-biphenylyl)-N-1,3-thiazol-2-ylhexanamide], the Ki falls from 20.6 nM to 11.1 nM (1.9-fold). The second binds more tightly here.

COc1ccc(C(c2ccccc2)C(C)(C)C(=O)Nc2nncs2)cc1C (single isomer, unassigned) [Example 295, 2,2-dimethyl-3-(3-methyl-4-(methyloxy)phenyl)-3-phenyl-N-1,3,4-thiadiazol-2-ylpropanamide] and CC(=O)Nc1ccc(-c2ccc(C(c3ccccc3)C(C)(C)C(=O)Nc3nncs3)cc2)cc1 (centres unmarked) [Example 414, 3-(4′-acetamido-4-biphenylyl)-2,2-dimethyl-3-phenyl-N-1,3,4-thiadiazol-2-ylpropanamide] are within 1.5-fold of each other in Ki: 13.9 nM for the first, 9.27 nM for the second.

Going from COc1ccc(C(c2ccccc2)C(C)(C)C(=O)Nc2nncs2)cc1C (single isomer, unassigned) [Example 294, 2,2-dimethyl-3-(3-methyl-4-(methyloxy)phenyl)-3-phenyl-N-1,3,4-thiadiazol-2-ylpropanamide] to CCCCc1ccc(-c2ccc(C(c3ccccc3)C(C)(C)C(=O)Nc3nncs3)cc2)cc1 (centres unmarked) [Example 418, 3-(4′-butyl-4-biphenylyl)-2,2-dimethyl-3-phenyl-N-1,3,4-thiadiazol-2-ylpropanamide], the Ki rises from 9.22 nM to 26.5 nM (2.9-fold).

CN(C)C(=O)c1ccc(-c2ccc(C(c3ccccc3)C(C)(C)C(=O)Nc3nccs3)cc2)cc1 (centres unmarked) [Example 381, 4′-(2,2-dimethyl-3-oxo-1-phenyl-3-(1,3-thiazol-2-ylamino)propyl)-N,N-dimethyl-4-biphenylcarboxamide] gave a Ki of 3.53 nM.

The compounds below were run against T2, human full-length glucocorticoid receptor (Homo sapiens, UniProt P04150) (assay: Glucocorticoid Receptor Binding Assay (II), fluorescence polarization competitor kit (Fluormone GS1)). Conditions: GR Binding Assay (II).
T2 construct: recombinantly expressed human full-length glucocorticoid receptor; purchased PanVera Co., Madison, Wis; P2816
T2 sequence (P04150 1-777): T1 sequence (P04150 1-777)
In short: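 Cell lysate with recombinant receptor incubated with 1 nM Fluormone GS1 tracer, with or without test compound, for one hour at room temperature. Binding read as displacement by fluorescence polarization.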

First: CC(C)(C(=O)Nc1nccs1)C(c1ccc(N2CCOCC2)cc1)c1cccc(F)c1 (single isomer, unassigned) [Example 254, 3-(3-fluorophenyl)-2,2-dimethyl-3-(4-(4-morpholinyl)phenyl)-N-1,3-thiazol-2-ylpropanamide]
Second: CC(C)(C(=O)Nc1nncs1)C(c1ccc(N2CCOCC2)cc1)c1cccc(F)c1 (single isomer, unassigned) [Example 256, 3-(3-fluorophenyl)-2,2-dimethyl-3-(4-(4-morpholinyl)phenyl)-N-1,3,4-thiadiazol-2-ylpropanamide]
The Ki of the first is 4.7-fold lower: 25.8 nM for the first, 121 nM for the second. The first binds more tightly here.
